Earlier results as cited in patent publication US20210169075A1, “ANTIBIOFILM FORMULATIONS AND METHODS FOR MICROBIAL DECONTAMINATION” (priority 2019, published 2021).
In brackets after ≈: the same amount, converted by molar mass.

Details: aqueous

Q: With C=CC(=C)CCC=C(C)C [Myrcene, myrcene] as the compound, how does the solubility concentration read?
A: 4.09 µg/mL (≈ 30 µM)
